System: rat and human α9α10 nAChRs
Test: ACh-evoked currents in Xenopus oocytes expressing rat or human α9α10 nAChRs
Format: cell-based
Conditions: 100 µM ACh

CC(=O)OCC[N+](C)(C)C [ACh, Acetylcholine chloride]
ACh-evoked current, rat vs human α9α10 (in words): generally evoked larger currents in Xenopus oocytes expressing rat α9α10 nAChRs than in oocytes expressing human α9α10 nAChRs

Reference: article PMC3433650 (Journal of neurochemistry, 2012)
